# Laboratory results from patent publication US20230039836A1, “AROMATIC SULPHONAMIDES DERIVATIVES THAT INHIBITS PDI A3, THEIR SYNTHESIS AND USE” (Uniwersytet Jagiellonski, priority 2020, published 2023).
# Test system: MCF-7
# Assay: MTT antiproliferative assay, 72 h, with or without estradiol
# Type: cell-based, human
# Settings: 72 hours exposition
# Protocol: (§1) Anticancer activity of PDI A1-inhibitors has been also tested in vitro in antiproliferative essay in normoxic and hypoxic conditions as well in estrogen-stimulated cancer cells. In the experiment, cells were seeded on 96-well plates (Sarstedt, Germany) in appropriate culture medium at a density of 10^5 cells/mL 24 h before adding the tested compounds. Cells were treated with each compound in four concentrations in the range 0.1-100 ug/mL. […] After 72 h of compound treatment at 37° C., 5 % CO2 humid atmosphere and in wo different oxygen level conditions: 21% - normal and <1% - hypoxia. In some experiments, the MDA-MB-231 and MCF-7 cells were seeded with or without 200 nM estradiol and after 24 h the tested compounds were added. A previously described sulforhodamine B antiproliferative assay was used with minor modifications (Skehan P et al., 1990). Briefly, cells were fixed with 50 µL/well of 50% (w/v) trichloroacetic acid (Avantor Performance Materials, Gliwice, Poland). After 1 h incubation, plates were washed several times with tap water and 50 µL of 0.4% (w/v) solution of sulforhodamine B (Sigma-Aldrich, Germany) in 1% (v/v) acetic acid (Avantor Performance Materials, Gliwice, Poland) was added to each well. After 30 min incubation at room temperature, unbound dye was washed out with 1% (v/v) acetic acid, whereas bound dye was solubilized with 10 mM unbuffered TRIS (Avantor Performance Materials, Gliwice, Poland) solution. The entire procedure was performed using a BioTek EL-406 washing station (BioTek Instruments, USA). After additional 30 min, absorbance was read using a Biotek Hybrid H4 reader (BioTek Instruments, USA) at 540 nm wavelength. MTT assay was used alternatively for HL-60 cell line and in the experiment in which estrogens are added (specified in the table legend). Absorbance was measured using a Biotek Hybrid H4 reader at 570 nm wavelength for MTT assay.
# (§2) Compounds at each concentration were tested in triplicate in a single experiment and each experiment was repeated at least three times independently.
# (§3) Results of in vitro antiproliferative effects are shown in Table 3 and Table 4 and are presented as mean IC50 ± SD calculated using the Prolab-3 system based on Cheburator 0.4 software.
# (§4) Statistical analysis: Unpaired t test. *p<0.05 as compared to appropriate cells not pretreated with estradiol. MTT assay was used for antiproliferative activity assessment.
row,Structure (SMILES),Selectivity index (SI): IC50 of MCF-10A/ IC50 of MCF-7
1,"CCCCCCc1ccc(S(=O)(=O)N2CC2C(=O)NC)cc1 (centres unmarked) [Compound C-3380, 1-(4-Hexylphenyl)sulfonyl-N-methyl-aziridine-2-carboxamide]",0.75
2,"CCCCCCc1ccc(S(=O)(=O)N2CC2C(N)=O)cc1 (centres unmarked) [Compound C-3389, 1-(4-Hexylphenyl)sulfonylaziridine-2-carboxamide]",0.23

# Same assay, conditions: Homo sapiens, MCF7; 200 nM estradiol, 72 hours exposition, MTT; read-out: IC50 [µg/ml] MCF-7 + estradiol
row,Structure (SMILES),IC50 [µg/mL]
1,"CCCCCCc1ccc(S(=O)(=O)N2CC2C(=O)NC)cc1 (centres unmarked) [Compound C-3380, 1-(4-Hexylphenyl)sulfonyl-N-methyl-aziridine-2-carboxamide]",26.3 ± 4.3
2,"CCCCCCc1ccc(S(=O)(=O)N2CC2C(N)=O)cc1 (centres unmarked) [Compound C-3389, 1-(4-Hexylphenyl)sulfonylaziridine-2-carboxamide]",18.4 ± 4.3

# Same assay, conditions: Homo sapiens, MCF7; not pretreated with estradiol, 72 hours exposition, MTT; read-out: IC50 [µg/ml] MCF-7 normal
row,Structure (SMILES),IC50 [µg/mL]
1,"CCCCCCc1ccc(S(=O)(=O)N2CC2C(=O)NC)cc1 (centres unmarked) [Compound C-3380, 1-(4-Hexylphenyl)sulfonyl-N-methyl-aziridine-2-carboxamide]",25.5 ± 2.3
2,"CCCCCCc1ccc(S(=O)(=O)N2CC2C(N)=O)cc1 (centres unmarked) [Compound C-3389, 1-(4-Hexylphenyl)sulfonylaziridine-2-carboxamide]",26.7 ± 4.5

# Test system: MDA-MB-231
# Assay: as above
# Type: cell-based, human
# Settings: Homo sapiens, MDA-MB-231; 200 nM estradiol, 72 hours exposition, MTT; read-out: IC50 [µg/ml] MDA-MB-231 + estradiol
# Protocol: as §1, §2, §3, §4
row,Structure (SMILES),IC50 [µg/mL]
1,"CCCCCCc1ccc(S(=O)(=O)N2CC2C(=O)NC)cc1 (centres unmarked) [Compound C-3380, 1-(4-Hexylphenyl)sulfonyl-N-methyl-aziridine-2-carboxamide]",26.3 ± 2.5
2,"CCCCCCc1ccc(S(=O)(=O)N2CC2C(N)=O)cc1 (centres unmarked) [Compound C-3389, 1-(4-Hexylphenyl)sulfonylaziridine-2-carboxamide]",28 ± 1.7

# Same assay, conditions: Homo sapiens, MDA-MB-231; not pretreated with estradiol, 72 hours exposition, MTT; read-out: IC50 [µg/ml] MDA-MB-231 normal
row,Structure (SMILES),IC50 [µg/mL]
1,"CCCCCCc1ccc(S(=O)(=O)N2CC2C(=O)NC)cc1 (centres unmarked) [Compound C-3380, 1-(4-Hexylphenyl)sulfonyl-N-methyl-aziridine-2-carboxamide]",26.1 ± 1
2,"CCCCCCc1ccc(S(=O)(=O)N2CC2C(N)=O)cc1 (centres unmarked) [Compound C-3389, 1-(4-Hexylphenyl)sulfonylaziridine-2-carboxamide]",23.2 ± 1

# Same assay, conditions: with estradiol versus without
row,Structure (SMILES),Change of antiproliferative activity towards MDA-MB-231 during simultaneous incubation with estradiol
1,"CCCCCCc1ccc(S(=O)(=O)N2CC2C(N)=O)cc1 (centres unmarked) [Compound C-3389, 1-(4-Hexylphenyl)sulfonylaziridine-2-carboxamide]",slight decrease of antiproliferative activity

# Test system: HT-29
# Assay: Sulforhodamine B antiproliferative assay, 72 h
# Type: cell-based, human
# Settings: normal (21% of oxygen), 72-hour exposition
# Protocol: as §1, §2, §3
row,Structure (SMILES),IC50 [µg/ml] HT-29 normal [µg/mL]
1,"COc1ccc(N2C(=O)/C(=C\c3ccc([N+](=O)[O-])s3)SC2=S)cc1 [CCF642, reference compound]",0.4 ± 0.05
2,"O=C(C1CC1)N1CCN(Cn2sc3ccccc3c2=O)CC1 [LOC14, reference compound]",12.6 ± 8.4

# Test system: MCF-7
# Assay: Sulforhodamine B antiproliferative assay, 72 h, normal and hypoxia
# Type: cell-based, human
# Settings: hypoxia (<1% of oxygen), 72-hour exposition
# Protocol: as §1, §2, §3
row,Structure (SMILES),IC50 [µg/ml] MCF-7 hypoxia [µg/mL]
1,"COc1ccc(N2C(=O)/C(=C\c3ccc([N+](=O)[O-])s3)SC2=S)cc1 [CCF642, reference compound]",0.6 ± 0.6
2,"O=C(C1CC1)N1CCN(Cn2sc3ccccc3c2=O)CC1 [LOC14, reference compound]",3.9 ± 0.3

# Same assay, conditions: normal (21% of oxygen), 72-hour exposition
row,Structure (SMILES),IC50 [µg/ml] MCF-7 normal [µg/mL]
1,"COc1ccc(N2C(=O)/C(=C\c3ccc([N+](=O)[O-])s3)SC2=S)cc1 [CCF642, reference compound]",0.7 ± 0.5
2,"O=C(C1CC1)N1CCN(Cn2sc3ccccc3c2=O)CC1 [LOC14, reference compound]",4.4 ± 0.9

# Test system: MDA-MB-231
# Assay: as above
# Type: cell-based, human
# Settings: hypoxia (<1% of oxygen), 72-hour exposition
# Protocol: as §1, §2, §3
row,Structure (SMILES),IC50 [µg/ml] MDA-MB-231 hypoxia [µg/mL]
1,"COc1ccc(N2C(=O)/C(=C\c3ccc([N+](=O)[O-])s3)SC2=S)cc1 [CCF642, reference compound]",0.3 ± 0.2
2,"O=C(C1CC1)N1CCN(Cn2sc3ccccc3c2=O)CC1 [LOC14, reference compound]",2.6 ± 0.5

# Same assay, conditions: normal (21% of oxygen), 72-hour exposition
row,Structure (SMILES),IC50 [µg/ml] MDA-MB-231 normal [µg/mL]
1,"COc1ccc(N2C(=O)/C(=C\c3ccc([N+](=O)[O-])s3)SC2=S)cc1 [CCF642, reference compound]",0.3 ± 0.1
2,"O=C(C1CC1)N1CCN(Cn2sc3ccccc3c2=O)CC1 [LOC14, reference compound]",2.8 ± 0.4

# Test system: Caco-2
# Assay: Sulforhodamine B antiproliferative assay, 72 h
# Type: cell-based, human
# Settings: normal (21% of oxygen), 72-hour exposition
# Protocol: In the experiment, cells were seeded on 96-well plates (Sarstedt, Germany) in appropriate culture medium at a density of 10^5 cells/mL 24 h before adding the tested compounds. Cells were treated with each compound in four concentrations in the range 0.1-100 ug/mL. […] Briefly, cells were fixed with 50 µL/well of 50% (w/v) trichloroacetic acid (Avantor Performance Materials, Gliwice, Poland). After 1 h incubation, plates were washed several times with tap water and 50 µL of 0.4% (w/v) solution of sulforhodamine B (Sigma-Aldrich, Germany) in 1% (v/v) acetic acid (Avantor Performance Materials, Gliwice, Poland) was added to each well. After 30 min incubation at room temperature, unbound dye was washed out with 1% (v/v) acetic acid, whereas bound dye was solubilized with 10 mM unbuffered TRIS (Avantor Performance Materials, Gliwice, Poland) solution. […] After additional 30 min, absorbance was read using a Biotek Hybrid H4 reader (BioTek Instruments, USA) at 540 nm wavelength.
row,Structure (SMILES),IC50 [µg/ml] Caco-2 normal [µg/mL]
1,"COc1ccc(N2C(=O)/C(=C\c3ccc([N+](=O)[O-])s3)SC2=S)cc1 [CCF642, reference compound]",0.4 ± 0.1
2,"O=C(C1CC1)N1CCN(Cn2sc3ccccc3c2=O)CC1 [LOC14, reference compound]",9.1 ± 3.4

# Test system: HT-1080 (human fibrosarcoma)
# Assay: MTT antiproliferative assay, 48 h
# Type: cell-based
# Settings: 48-hour exposition, read-out: Cytotoxicity, IC50, µM HT-1080
# Protocol: (§5) About 2000-4000 cells per well (depending on line nature) were placed in 96-well plates and after 24 h compounds were added to the wells. Untreated cells were used as a control. The plates were incubated for 48 h, 37° C., 5% CO2. The number of surviving cells was determined using 3-(4,5-dimethylthiazol-2-yl)-2,5-diphenyltetrazolinium bromide (MTT). MTT-test: after incubating culture medium was removed and 200 µL fresh medium with 20 µL MTT (2 mg/mL in HBSS) was added in each well of the plate. After incubation (3 hr., 37° C., 5% CO2), the medium with MTT was removed and 200 µL DMSO were added at once to each sample. The samples were tested at 540 nm on Thermo Scientific Multiskan EX microplate photometer. The half-maximal inhibitory concentration (IC50) of each compound was calculated using Graph Pad Prism® 3.0.
row,Structure (SMILES),IC50 [µM]
1,"CCCCCCc1ccc(S(=O)(=O)N2CC2C(N)=O)cc1 (centres unmarked) [Compound C-3389, 1-(4-Hexylphenyl)sulfonylaziridine-2-carboxamide]",36 ± 3

# Test system: MCF-7 (human breast adenocarcinoma, estrogen-positive)
# Assay: MTT antiproliferative assay, 48 h
# Type: cell-based
# Settings: Homo sapiens, MCF7, 48-hour exposition, read-out: Cytotoxicity, IC50, µM MCF-7
# Protocol: as §5
row,Structure (SMILES),IC50 [µM]
1,"CCCCCCc1ccc(S(=O)(=O)N2CC2C(N)=O)cc1 (centres unmarked) [Compound C-3389, 1-(4-Hexylphenyl)sulfonylaziridine-2-carboxamide]",47 ± 6

# Test system: Caco-2 (human colon adenocarcinoma)
# Assay: MTT antiproliferative assay, 48 h
# Type: cell-based
# Settings: Homo sapiens, Caco-2, 48-hour exposition, read-out: Cytotoxicity, IC50, µM CaCo-2
# Protocol: as §5
row,Structure (SMILES),IC50 [µM]
1,"CCCCCCc1ccc(S(=O)(=O)N2CC2C(N)=O)cc1 (centres unmarked) [Compound C-3389, 1-(4-Hexylphenyl)sulfonylaziridine-2-carboxamide]",49 ± 2

# Test system: MDA-MB-231 (human mammary breast adenocarcinoma)
# Assay: MTT antiproliferative assay, 48 h
# Type: cell-based
# Settings: Homo sapiens, MDA-MB-231, 48-hour exposition, read-out: Cytotoxicity, IC50, µM MDA-MB-231
# Protocol: as §5
row,Structure (SMILES),IC50 [µM]
1,"CCCCCCc1ccc(S(=O)(=O)N2CC2C(N)=O)cc1 (centres unmarked) [Compound C-3389, 1-(4-Hexylphenyl)sulfonylaziridine-2-carboxamide]",32 ± 3

# Molecular target: T1, PDI A1 (Homo sapiens, UniProt P07237)
# T1 construct: purchased Mybiosource; host or cells: E. coli
# T1 sequence (P07237 18-508, species assumed): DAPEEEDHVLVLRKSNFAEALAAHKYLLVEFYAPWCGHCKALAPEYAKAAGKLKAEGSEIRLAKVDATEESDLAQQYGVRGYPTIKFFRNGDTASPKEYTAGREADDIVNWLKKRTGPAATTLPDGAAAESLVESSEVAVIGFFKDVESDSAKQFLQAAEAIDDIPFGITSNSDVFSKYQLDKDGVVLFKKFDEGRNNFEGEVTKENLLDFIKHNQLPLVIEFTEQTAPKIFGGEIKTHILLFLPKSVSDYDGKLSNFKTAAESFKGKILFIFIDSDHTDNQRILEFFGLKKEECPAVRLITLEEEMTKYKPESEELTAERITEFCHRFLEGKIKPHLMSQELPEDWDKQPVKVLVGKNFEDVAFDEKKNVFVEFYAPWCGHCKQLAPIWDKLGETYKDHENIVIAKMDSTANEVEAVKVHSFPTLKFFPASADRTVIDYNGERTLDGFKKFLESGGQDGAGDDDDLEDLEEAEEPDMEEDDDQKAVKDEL
# Assay: Insulin turbidometric assay, inhibition of PDI A1
# Type: biochemical
# Settings: insulin reduction, turbidity at 650 nm, 60 min incubation at 37° C.; read-out: Inhibition of PDI A1 (EC 50)
# Protocol: The inhibitory effects compounds of invention on activity of PDI A1 was assess based on the insulin turbidometric assay. Enzymatic activity of PDIA1 was confirmed by measuring the turbidity increase at 650 nm due to insulin reduction. The assay mixture was prepared by addition 10 ug/ml PDIA1 (E.coli recombinant protein; Mybiosource), 0.1 mM phosphate buffer (pH7.6), 1 mM EDTA, 0.087 mM DTT and with or without tested compound and was incubated for 60 min, at 37° C. Reaction was started by addition insulin and DTT. Final concentration of insulin and DTT in assay mixture was 0.15 mM and 0.174 mM, respectively. Turbidity was detected at 650 nm against reference samples without PDI A1s. The measurements were performed at 650 nm using 120-s recordings.
row,Structure (SMILES),EC50 [µM]
1,"CCCCCCc1ccc(S(=O)(=O)N2CC2C(N)=O)cc1 (centres unmarked) [Compound C-3389, 1-(4-Hexylphenyl)sulfonylaziridine-2-carboxamide]",0.03

# Test system: HT-29
# Assay: MTT antiproliferative assay, 72 h
# Type: cell-based
# Settings: Homo sapiens, 72 hours exposition, read-out: IC50 [µg/ml] HT-29 normal
# Protocol: as §1, §2, §3, §4
row,Structure (SMILES),IC50 [µg/mL]
1,"CCCCCCc1ccc(S(=O)(=O)N2CC2C(=O)NC)cc1 (centres unmarked) [Compound C-3380, 1-(4-Hexylphenyl)sulfonyl-N-methyl-aziridine-2-carboxamide]",34.6 ± 2.2
2,"CCCCCCc1ccc(S(=O)(=O)N2CC2C(N)=O)cc1 (centres unmarked) [Compound C-3389, 1-(4-Hexylphenyl)sulfonylaziridine-2-carboxamide]",31.2 ± 6.7

# Test system: HL-60
# Assay: MTT antiproliferative assay, 72 h
# Type: cell-based
# Settings: Homo sapiens, 72 hours exposition, read-out: IC50 [µg/ml] HL-60 normal
# Protocol: as §1, §2, §3, §4
row,Structure (SMILES),IC50 [µg/mL]
1,"CCCCCCc1ccc(S(=O)(=O)N2CC2C(=O)NC)cc1 (centres unmarked) [Compound C-3380, 1-(4-Hexylphenyl)sulfonyl-N-methyl-aziridine-2-carboxamide]",5.3 ± 2.8
2,"CCCCCCc1ccc(S(=O)(=O)N2CC2C(N)=O)cc1 (centres unmarked) [Compound C-3389, 1-(4-Hexylphenyl)sulfonylaziridine-2-carboxamide]",2.8 ± 0.8
